System: 922993-354-T-J3-PDC complex spheroids, viability
Assay: Anticancer human tumor 922993-354-T-J3-PDC patient-derived endometrial carcinoma cell line growth inhibition [GQUAD]
Settings: for IC50: curve of first compound; for viability, T/C: stronger effect = lower value
Outline: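 Multi-cell-type spheroids of tumor cells with HUVEC and mesenchymal stem cells, treated with drug combinations. Concentrations descend in half-log steps from near clinical Cmax, or from 10 microM where Cmax is unknown; viability read-out.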

[1] = second compound 0.0316 µM, first compound 0.0316 µM
[2] = second compound 0.0316 µM, first compound 0.316 µM
[3] = second compound 0.1 µM, first compound 0.0316 µM
[4] = second compound 0.1 µM, first compound 0.316 µM
[5] = second compound 0.316 µM, first compound 0.0316 µM
[6] = second compound 0.316 µM, first compound 0.316 µM
[7] = second compound 1 µM, first compound 0.0316 µM
[8] = second compound 1 µM, first compound 0.316 µM
[9] = second compound 3.16 µM, first compound 0.0316 µM
[10] = second compound 3.16 µM, first compound 0.316 µM
[11] = second compound 10 µM, first compound 0.0316 µM
[12] = second compound 10 µM, first compound 0.316 µM
[13] = second compound 0.0316 µM, first compound 0.000999 µM
[14] = second compound 0.0316 µM, first compound 0.00316 µM
[15] = second compound 0.0316 µM, first compound 0.00999 µM
[16] = second compound 0.0316 µM, first compound 0.0999 µM
[17] = second compound 0.1 µM, first compound 0.000999 µM
[18] = second compound 0.1 µM, first compound 0.00316 µM
[19] = second compound 0.1 µM, first compound 0.00999 µM
[20] = second compound 0.1 µM, first compound 0.0999 µM
[21] = second compound 0.316 µM, first compound 0.000999 µM
[22] = second compound 0.316 µM, first compound 0.00316 µM
[23] = second compound 0.316 µM, first compound 0.00999 µM
[24] = second compound 0.316 µM, first compound 0.0999 µM
[25] = second compound 1 µM, first compound 0.000999 µM
[26] = second compound 1 µM, first compound 0.00316 µM
[27] = second compound 1 µM, first compound 0.00999 µM
[28] = second compound 1 µM, first compound 0.0999 µM
[29] = second compound 3.16 µM, first compound 0.000999 µM
[30] = second compound 3.16 µM, first compound 0.00316 µM
[31] = second compound 3.16 µM, first compound 0.00999 µM
[32] = second compound 3.16 µM, first compound 0.0999 µM
[33] = second compound 10 µM, first compound 0.000999 µM
[34] = second compound 10 µM, first compound 0.00316 µM
[35] = second compound 10 µM, first compound 0.00999 µM
[36] = second compound 10 µM, first compound 0.0999 µM
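Also: spheroids exposed to compounds for seven days.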
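For viability, T/C in this document: 100% = DMSO vehicle control viability.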

## C=CC(=O)N1CCN(c2nc(=O)n(-c3c(C)ccnc3C(C)C)c3nc(-c4c(O)cccc4F)c(F)cc23)C(C)C1 (stereo unspecified) + Cc1cnc(CNC(=O)c2c(=O)c3ccc(N4CCCN(C)CC4)nc3n3c2sc2ccccc23)cn1
Second compound 0.0316 µM
  IC50: > 10000 nM
Second compound 0.1 µM
  IC50: > 10000 nM
Second compound 0.316 µM
  IC50: > 10000 nM
Second compound 1 µM
  IC50: > 10000 nM
Second compound 3.16 µM
  IC50: > 10000 nM
Second compound 10 µM
  IC50: 31.6 nM
[1]
  viability, T/C: 109%
Second compound 0.0316 µM, first compound 0.1 µM
  viability, T/C: 89.1%
[2]
  viability, T/C: 79.2%
Second compound 0.0316 µM, first compound 1 µM
  viability, T/C: 99.5%
Second compound 0.0316 µM, first compound 3.16 µM
  viability, T/C: 80.4%
Second compound 0.0316 µM, first compound 10 µM
  viability, T/C: 100%
[3]
  viability, T/C: 71.2%
Second compound 0.1 µM, first compound 0.1 µM
  viability, T/C: 73.2%
[4]
  viability, T/C: 52.8%
Second compound 0.1 µM, first compound 1 µM
  viability, T/C: 67%
Second compound 0.1 µM, first compound 3.16 µM
  viability, T/C: 77.2%
Second compound 0.1 µM, first compound 10 µM
  viability, T/C: 53.9%
[5]
  viability, T/C: 49.1%
Second compound 0.316 µM, first compound 0.1 µM
  viability, T/C: 57.5%
[6]
  viability, T/C: 51.8%
Second compound 0.316 µM, first compound 1 µM
  viability, T/C: 53.1%
Second compound 0.316 µM, first compound 3.16 µM
  viability, T/C: 55.1%
Second compound 0.316 µM, first compound 10 µM
  viability, T/C: 61.9%
[7]
  viability, T/C: 55.2%
Second compound 1 µM, first compound 0.1 µM
  viability, T/C: 61.1%
[8]
  viability, T/C: 46.9%
Second compound 1 µM, first compound 1 µM
  viability, T/C: 47.7%
Second compound 1 µM, first compound 3.16 µM
  viability, T/C: 53.8%
Second compound 1 µM, first compound 10 µM
  viability, T/C: 55.1%
[9]
  viability, T/C: 53.9%
Second compound 3.16 µM, first compound 0.1 µM
  viability, T/C: 55.9%
[10]
  viability, T/C: 55.4%
Second compound 3.16 µM, first compound 1 µM
  viability, T/C: 51.3%
Second compound 3.16 µM, first compound 3.16 µM
  viability, T/C: 65.7%
Second compound 3.16 µM, first compound 10 µM
  viability, T/C: 53.7%
[11]
  viability, T/C: 52.5%
Second compound 10 µM, first compound 0.1 µM
  viability, T/C: 58.1%
[12]
  viability, T/C: 53.2%
Second compound 10 µM, first compound 1 µM
  viability, T/C: 46%
Second compound 10 µM, first compound 3.16 µM
  viability, T/C: 64%
Second compound 10 µM, first compound 10 µM
  viability, T/C: 70%

## CC[C@@]1(O)C(=O)OCc2c1cc1n(c2=O)Cc2cc3c(CN(C)C)c(O)ccc3nc2-1 + Cc1cnc(CNC(=O)c2c(=O)c3ccc(N4CCCN(C)CC4)nc3n3c2sc2ccccc23)cn1
Second compound 0.0316 µM
  IC50: > 316 nM
Second compound 0.1 µM
  IC50: 125 nM
Second compound 0.316 µM
  IC50: 3.91 nM
Second compound 1 µM
  IC50: 81.8 nM
Second compound 3.16 µM
  IC50: 53 nM
Second compound 10 µM
  IC50: < 0.999 nM
[13]
  viability, T/C: 94.7%
[14]
  viability, T/C: 86.6%
[15]
  viability, T/C: 84%
[1]
  viability, T/C: 86.9%
[16]
  viability, T/C: 83.2%
[2]
  viability, T/C: 54.6%
[17]
  viability, T/C: 60.6%
[18]
  viability, T/C: 74.2%
[19]
  viability, T/C: 55.1%
[3]
  viability, T/C: 61%
[20]
  viability, T/C: 50.4%
[4]
  viability, T/C: 42.7%
[21]
  viability, T/C: 58.6%
[22]
  viability, T/C: 53.5%
[23]
  viability, T/C: 46.7%
[5]
  viability, T/C: 37.5%
[24]
  viability, T/C: 41.1%
[6]
  viability, T/C: 40.3%
[25]
  viability, T/C: 42.2%
[26]
  viability, T/C: 58.5%
[27]
  viability, T/C: 39.6%
[7]
  viability, T/C: 62.3%
[28]
  viability, T/C: 49.1%
[8]
  viability, T/C: 36.2%
[29]
  viability, T/C: 52.1%
[30]
  viability, T/C: 54.9%
[31]
  viability, T/C: 63.4%
[9]
  viability, T/C: 42.5%
[32]
  viability, T/C: 49.2%
[10]
  viability, T/C: 45.3%
[33]
  viability, T/C: 45.5%
[34]
  viability, T/C: 36.3%
[35]
  viability, T/C: 43.3%
[11]
  viability, T/C: 44.1%
[36]
  viability, T/C: 46.2%
[12]
  viability, T/C: 47.5%

## CCc1c2c(nc3ccc(O)cc13)-c1cc3c(c(=O)n1C2)COC(=O)[C@]3(O)CC + Cc1cnc(CNC(=O)c2c(=O)c3ccc(N4CCCN(C)CC4)nc3n3c2sc2ccccc23)cn1
Second compound 0.0316 µM
  IC50: 11.3 nM
Second compound 0.1 µM
  IC50: 5.27 nM
Second compound 0.316 µM
  IC50: < 0.999 nM
Second compound 1 µM
  IC50: 5.12 nM
Second compound 3.16 µM
  IC50: < 0.999 nM
Second compound 10 µM
  IC50: < 0.999 nM
[13]
  viability, T/C: 85.3%
[14]
  viability, T/C: 74.5%
[15]
  viability, T/C: 54.5%
[1]
  viability, T/C: 25.2%
[16]
  viability, T/C: 24.4%
[2]
  viability, T/C: 31.6%
[17]
  viability, T/C: 66.8%
[18]
  viability, T/C: 63.4%
[19]
  viability, T/C: 33.2%
[3]
  viability, T/C: 23.4%
[20]
  viability, T/C: 29.4%
[4]
  viability, T/C: 33.4%
[21]
  viability, T/C: 53.9%
[22]
  viability, T/C: 43.3%
[23]
  viability, T/C: 32.2%
[5]
  viability, T/C: 26.3%
[24]
  viability, T/C: 45.5%
[6]
  viability, T/C: 52.1%
[25]
  viability, T/C: 48.7%
[26]
  viability, T/C: 60.6%
[27]
  viability, T/C: 43.5%
[7]
  viability, T/C: 37%
[28]
  viability, T/C: 42.1%
[8]
  viability, T/C: 38.1%
[29]
  viability, T/C: 44.7%
[30]
  viability, T/C: 44%
[31]
  viability, T/C: 46.5%
[9]
  viability, T/C: 49%
[32]
  viability, T/C: 47.4%
[10]
  viability, T/C: 38.8%
[33]
  viability, T/C: 37.6%
[34]
  viability, T/C: 49.3%
[35]
  viability, T/C: 45.3%
[11]
  viability, T/C: 44.1%
[36]
  viability, T/C: 45%
[12]
  viability, T/C: 26%

Reference: PubChem BioAssay AID2060489 (Molecular Pharmacology Branch, DTP, NCI, 2025)
